Assay results reported in PubChem BioAssay AID1745844 (Carcinogenic Potency Database (CPDB), 2022).
Activity calls are given as the source filed them. How the calls were made is not given here.

Tested on: rodent lifetime carcinogenesis bioassay, tumor incidence TD50
Assay: chronic cancer bioassays in animals – CPDB, compiled studies (AID 1745844)

For `C=C(Cl)Cl`, the TD50 (mouse, strain B6C3F1, females, by gavage, site: all sites, lesion: leukemia + lymphoma, dosed 104 weeks, study length 104 weeks) was 3.9 mg/kg/day (inactive), the TD50 (mouse, strain B6C3F1, females, by gavage, site: all sites, lesion: lymphoma, dosed 104 weeks, study length 104 weeks) was 4.02 mg/kg/day and the TD50 (mouse, strain B6C3F1, females, by gavage, site: any site (literature study), lesion: several types, types named in the paper, dosed 104 weeks, study length 104 weeks) was 2.09 mg/kg/day. The TD50 (mouse, strain B6C3F1, females, by gavage, site: lung, lesion: alveolar/bronchiolar adenoma + alveolar/bronchiolar carcinoma, dosed 104 weeks, study length 104 weeks) was 66.7 mg/kg/day, the TD50 (mouse, strain B6C3F1, males, by gavage, site: any site (literature study), lesion: several types, types named in the paper, dosed 104 weeks, study length 104 weeks) was 34.8 mg/kg/day (inactive) and the TD50 (mouse, strain B6C3F1, males, by gavage, site: liver, lesion: hepatocellular adenoma + hepatocellular carcinoma + neoplastic nodule, dosed 104 weeks, study length 104 weeks) was 133 mg/kg/day. For the same compound, the TD50 (mouse, strain B6C3F1, males, by gavage, site: lung, lesion: alveolar/bronchiolar adenoma + alveolar/bronchiolar carcinoma, dosed 104 weeks, study length 104 weeks) was 60.4 mg/kg/day, the carcinogen call (mouse, strain Charles River CD1, females, inhaled, site: liver, lesion: hemangiosarcoma, dosed 26 weeks, study length 78 weeks) was “negative (inactive)” and the TD50 (mouse, strain Charles River CD1, females, inhaled, site: liver, lesion: hemangiosarcoma, dosed 52 weeks, study length 52 weeks) was 170 mg/kg/day. For the same compound, the carcinogen call (mouse, strain Charles River CD1, females, inhaled, site: liver, lesion: hepatocellular tumor, dosed 26 weeks, study length 78 weeks) was “negative (inactive)”, the TD50 (mouse, strain Charles River CD1, females, inhaled, site: liver, lesion: hepatoma, dosed 52 weeks, study length 52 weeks) was 170 mg/kg/day and the carcinogen call (mouse, strain Charles River CD1, females, inhaled, site: lung, lesion: alveolar/bronchiolar tumor, dosed 26 weeks, study length 78 weeks) was “negative (inactive)”. For the same compound, the carcinogen call (mouse, strain Charles River CD1, males, inhaled, site: liver, lesion: hepatocellular tumor, dosed 26 weeks, study length 78 weeks) was “negative (inactive)”, the carcinogen call (mouse, strain Charles River CD1, males, inhaled, site: lung, lesion: alveolar/bronchiolar tumor, dosed 26 weeks, study length 78 weeks) was “negative (inactive)” and the TD50 (mouse, strain Swiss, females, inhaled, site: any site (literature study), lesion: malignant tumor, dosed 52 weeks, study length 126 weeks) was 86.1 mg/kg/day. The TD50 (mouse, strain Swiss, females, inhaled, site: any site (literature study), lesion: several types, types named in the paper, dosed 52 weeks, study length 126 weeks) was 30.9 mg/kg/day, the TD50 (mouse, strain Swiss, females, inhaled, site: liver, lesion: hepatoma, dosed 52 weeks, study length 126 weeks) was 858 mg/kg/day and the TD50 (mouse, strain Swiss, females, inhaled, site: lung, lesion: several types, types named in the paper, dosed 52 weeks, study length 126 weeks) was 124 mg/kg/day. For the same compound, the TD50 (mouse, strain Swiss, females, inhaled, site: mammary gland, lesion: several types, types named in the paper, dosed 52 weeks, study length 126 weeks) was 80.9 mg/kg/day, the TD50 (mouse, strain Swiss, males, inhaled, site: any site (literature study), lesion: malignant tumor, dosed 52 weeks, study length 126 weeks) was 50.3 mg/kg/day and the TD50 (mouse, strain Swiss, males, inhaled, site: any site (literature study), lesion: several types, types named in the paper, dosed 52 weeks, study length 126 weeks) was 17.9 mg/kg/day. It also gave a TD50 (mouse, strain Swiss, males, inhaled, site: kidney, lesion: adenocarcinoma, dosed 52 weeks, study length 126 weeks) of 22 mg/kg/day, a TD50 (mouse, strain Swiss, males, inhaled, site: liver, lesion: angiosarcoma, dosed 52 weeks, study length 126 weeks) of 566 mg/kg/day and a TD50 (mouse, strain Swiss, males, inhaled, site: lung, lesion: several types, types named in the paper, dosed 52 weeks, study length 126 weeks) of 59.9 mg/kg/day. The carcinogen call (rat, strain Charles River CD (Sprague-Dawley), females, inhaled, site: liver, lesion: several types, types named in the paper, dosed 26 weeks, study length 78 weeks) was “negative (inactive)”, the carcinogen call (rat, strain Charles River CD (Sprague-Dawley), females, inhaled, site: liver, lesion: several types, types named in the paper, dosed 43 weeks, study length 95 weeks) was “negative (inactive)” and the carcinogen call (rat, strain Charles River CD (Sprague-Dawley), males, inhaled, site: liver, lesion: several types, types named in the paper, dosed 26 weeks, study length 78 weeks) was “negative (inactive)”. The carcinogen call (rat, strain Charles River CD (Sprague-Dawley), males, inhaled, site: liver, lesion: several types, types named in the paper, dosed 43 weeks, study length 95 weeks) was “negative (inactive)”, the carcinogen call (rat, strain Fischer 344, females, by gavage, site: any site (literature study), lesion: several types, types named in the paper, dosed 104 weeks, study length 104 weeks) was “negative (inactive)” and the carcinogen call (rat, strain Fischer 344, males, by gavage, site: any site (literature study), lesion: several types, types named in the paper, dosed 104 weeks, study length 104 weeks) was “negative (inactive)”. The TD50 (rat, strain Sprague-Dawley Spartan, females, in drinking water, site: liver, lesion: hepatocellular carcinoma, dosed 104 weeks, study length 104 weeks) was 654 mg/kg/day (inactive), the TD50 (rat, strain Sprague-Dawley Spartan, females, in drinking water, site: liver, lesion: neoplastic nodule, dosed 104 weeks, study length 104 weeks) was 414 mg/kg/day (inactive) and the TD50 (rat, strain Sprague-Dawley Spartan, females, in drinking water, site: mammary gland, lesion: fibroadenoma, dosed 104 weeks, study length 104 weeks) was 679 mg/kg/day (inactive). For the same compound, the carcinogen call (rat, strain Sprague-Dawley Spartan, females, in drinking water, site: pituitary gland, lesion: adenoma, dosed 104 weeks, study length 104 weeks) was “negative (inactive)”, the carcinogen call (rat, strain Sprague-Dawley Spartan, females, inhaled, site: liver, lesion: cholangioma, dosed 78 weeks, study length 104 weeks) was “negative (inactive)” and the TD50 (rat, strain Sprague-Dawley Spartan, females, inhaled, site: mammary gland, lesion: adenocarcinoma, dosed 78 weeks, study length 104 weeks) was 49.8 mg/kg/day (inactive). The TD50 (rat, strain Sprague-Dawley Spartan, females, inhaled, site: mammary gland, lesion: fibroadenoma, dosed 78 weeks, study length 104 weeks) was 16 mg/kg/day (inactive), the TD50 (rat, strain Sprague-Dawley Spartan, males, in drinking water, site: liver, lesion: hepatocellular carcinoma, dosed 104 weeks, study length 104 weeks) was 22900 mg/kg/day (inactive) and the carcinogen call (rat, strain Sprague-Dawley Spartan, males, in drinking water, site: liver, lesion: neoplastic nodule, dosed 104 weeks, study length 104 weeks) was “negative (inactive)”. The carcinogen call (rat, strain Sprague-Dawley Spartan, males, inhaled, site: liver, lesion: sarcoma, dosed 78 weeks, study length 104 weeks) was “negative (inactive)”, the TD50 (rat, strain Sprague-Dawley, females, by gavage, site: liver, lesion: angiosarcoma, dosed 52 weeks, study length 136 weeks) was 0.501 mg/kg/day and the TD50 (rat, strain Sprague-Dawley, females, inhaled, site: any site (literature study), lesion: several types, types named in the paper, dosed 104 weeks, study length 150 weeks) was 119 mg/kg/day. The TD50 (rat, strain Sprague-Dawley, females, inhaled, site: liver, lesion: several types, types named in the paper, dosed 104 weeks, study length 150 weeks) was 847 mg/kg/day and the TD50 (rat, strain Sprague-Dawley, males, by gavage, site: any site (literature study), lesion: several types, types named in the paper, dosed 52 weeks, study length 136 weeks) was 5.32 mg/kg/day.
